Measured values reported in patent publication US20080267942A1, “BENZAZEPIN-2(1H)-ONE DERIVATIVES” (Pfizer Limited, priority 2006, published 2008).

Columns and labels:
[1] = biological target: T1, bovine beta-2 adrenoceptor (Bos taurus, UniProt Q28044); test: cAMP assay in CHO cells transfected with the bovine beta-2 adrenoceptor (DiscoveRx Hit Hunter cAMP II); assay type: cell-based; conditions: CHO cells transfected with bovine beta-2 adrenoceptor, 30 minutes incubation with compound
T1 construct: expressed in transfected cells; host or cells: CHO cells
T1 sequence (Q28044 whole entry): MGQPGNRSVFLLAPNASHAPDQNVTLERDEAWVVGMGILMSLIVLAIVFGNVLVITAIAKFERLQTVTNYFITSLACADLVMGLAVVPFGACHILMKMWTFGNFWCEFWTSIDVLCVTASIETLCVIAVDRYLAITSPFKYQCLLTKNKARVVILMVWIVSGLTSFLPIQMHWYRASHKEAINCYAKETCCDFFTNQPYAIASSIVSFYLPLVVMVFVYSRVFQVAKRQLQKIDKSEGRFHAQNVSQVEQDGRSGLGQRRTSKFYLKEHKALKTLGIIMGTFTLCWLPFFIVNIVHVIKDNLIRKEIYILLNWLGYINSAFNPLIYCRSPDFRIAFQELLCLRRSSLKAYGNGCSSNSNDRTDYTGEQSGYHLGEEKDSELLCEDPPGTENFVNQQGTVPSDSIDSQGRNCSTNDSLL
Procedure: (§1) CHO cells transfected with the bovine or porcine beta-2 adrenceptors were maintained in culture in DMEM/HAMS F12+10% FBS+2 mM glutamine+500 μg/ml geneticin (for the porcine receptor the medium was supplement with 1.5 mM HEPES) at 37° C. with a 5% CO2 atmosphere.
(§2) Cells were plated into 96 well viewplates in medium and incubated overnight at 37° C. with a 5% CO2 atmosphere. The cells were pre-incubated with 0.5 mM IBMX in PBS for 30 minutes prior to incubation with increasing concentrations of experimental compound (5×10^−12 to 10^−5M) for 30 minutes at 37° C. with a 5% CO2 atmosphere. At the end of the incubation time the compound was removed and the cells assayed for cAMP using the DiscoveRx Hit Hunter cAMP II™ assay kit.
(§3) Duplicate samples were run for each experimental compound and the data generated was analysed using EC50 analysis software in Graphpad Prism.

[2] = biological target: T2, porcine beta-2 adrenoceptor (Sus scrofa, UniProt Q28997); test: cAMP assay in CHO cells transfected with the porcine beta-2 adrenoceptor (DiscoveRx Hit Hunter cAMP II); assay type: cell-based; conditions: CHO cells transfected with porcine beta-2 adrenoceptor, 30 minutes incubation with compound
T2 construct: expressed in transfected cells; host or cells: CHO cells
T2 sequence (Q28997 whole entry): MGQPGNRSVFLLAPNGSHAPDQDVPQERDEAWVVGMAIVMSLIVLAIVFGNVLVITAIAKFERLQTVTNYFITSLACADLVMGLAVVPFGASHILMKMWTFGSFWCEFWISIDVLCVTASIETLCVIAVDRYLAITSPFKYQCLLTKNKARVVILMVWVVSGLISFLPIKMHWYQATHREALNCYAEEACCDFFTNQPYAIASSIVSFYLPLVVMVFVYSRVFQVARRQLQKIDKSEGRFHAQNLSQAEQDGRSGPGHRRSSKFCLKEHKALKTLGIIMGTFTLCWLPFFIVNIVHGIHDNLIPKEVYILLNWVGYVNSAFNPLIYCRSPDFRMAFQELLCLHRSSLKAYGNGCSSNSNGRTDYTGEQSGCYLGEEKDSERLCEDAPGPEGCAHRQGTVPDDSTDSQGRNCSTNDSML
Procedure: as §1, §2, §3

EC50 [1] [µM]	EC50 [2] [µM]	SMILES
0.366	0.019	CC(CCc1c[nH]c2ccncc12)N[C@@H]1CCn2c(=O)[nH]c3cccc(c32)[C@H]1O (mixture of isomers) [Example 31c, 7-Hydroxy-6-{[1-methyl-3-(1H-pyrrolo[3,2-c]pyridin-3-yl)-propyl]amino}-4,5,6,7-tetrahydroimidazo[4,5,1-jk][1]benzazepin-2(1H)-one]
0.018	0.0087	CC(CCc1c[nH]c2cnccc12)N[C@@H]1CCn2c(=O)[nH]c3cccc(c32)[C@H]1O (mixture of isomers) [Example 32c, 7-Hydroxy-6-{[1-methyl-3-(1H-pyrrolo[2,3-c]pyridin-3-yl)propyl]amino}-4,5,6,7-tetrahydroimidazo[4,5,1-jk][1]benzazepin-2(1H)-one]
0.023	0.045	Cc1ncsc1CCC(C)N[C@@H]1CCn2c(=O)[nH]c3cccc(c32)[C@H]1O (mixture of isomers) [Example 34a, 7-Hydroxy-6-{[1-methyl-3-(4-methyl-1,3-thiazol-5-yl)propyl]amino}-4,5,6,7-tetrahydroimidazo[4,5,1-jk][1]benzazepin-2(1H)-one]
0.0006	0.0011	CC(CCc1cccc2cc[nH]c12)N[C@@H]1CCn2c(=O)[nH]c3cccc(c32)[C@H]1O (mixture of isomers) [Example 38d, 7-Hydroxy-6-{[3-(1H-indol-7-yl)-1-methylpropyl]amino}-4,5,6,7-tetrahydroimidazo[4,5,1-jk][1]benzazepin-2(1H)-one]
0.459	0.02	O=c1[nH]c2cccc3c2n1CC[C@@H](NCCc1c[nH]c2ccccc12)[C@@H]3O (racemic) [Example 40a]
0.55	0.028	O=c1[nH]c2cccc3c2n1CC[C@@H](NCCc1c[nH]c2ccccc12)[C@@H]3O (racemic) [Example 40b]
1.83	> 10	CC(CCc1c[nH]c2ccc(Cl)cc12)N[C@@H]1CCn2c(=O)[nH]c3cccc(c32)[C@H]1O (single isomer, unassigned) [Example 21a, 6-{[3-(5-Chloro-1H-indol-3-yl)-1-methylpropyl]amino}-7-hydroxy-4,5,6,7-tetrahydroimidazo[4,5,1-jk][1]benzazepin-2(1H)-one]
0.015	0.011	CC(CCc1c[nH]c2ccc(Cl)cc12)N[C@@H]1CCn2c(=O)[nH]c3cccc(c32)[C@H]1O (single isomer, unassigned) [Example 21b, 6-{[3-(5-Chloro-1H-indol-3-yl)-1-methylpropyl]amino}-7-hydroxy-4,5,6,7-tetrahydroimidazo[4,5,1-jk][1]benzazepin-2(1H)-one]
0.153	0.121	Cc1nc(C)c(CCC(C)N[C@@H]2CCn3c(=O)[nH]c4cccc(c43)[C@H]2O)s1 (single isomer, unassigned) [Example 23a, 6-{[3-(2,4-Dimethyl-1,3-thiazol-5-yl)-1-methylpropyl]amino}-7-hydroxy-4,5,6,7-tetrahydroimidazo[4,5,1-jk][1]benzazepin-2(1H)-one]
0.012	0.0049	Cc1nc(C)c(CCC(C)N[C@@H]2CCn3c(=O)[nH]c4cccc(c43)[C@H]2O)s1 (single isomer, unassigned) [Example 23b, 6-{[3-(2,4-Dimethyl-1,3-thiazol-5-yl)-1-methylpropyl]amino}-7-hydroxy-4,5,6,7-tetrahydroimidazo[4,5,1-jk][1]benzazepin-2(1H)-one]
0.0066	> 10	Cc1ncc(CCC(C)N[C@@H]2CCn3c(=O)[nH]c4cccc(c43)[C@H]2O)s1 (single isomer, unassigned) [Example 28b, 7-Hydroxy-6-{[1-methyl-3-(2-methyll-1,3-thiazol-5-yl)propyl]amino}-4,5,6,7-tetrahydroimidazo[4,5,1-jk][1]benzazepin-2(1H)-one]

Continued, compound first:

SMILES	EC50 [1] [µM]	EC50 [2] [µM]
CC(CCc1c[nH]c2ccc(C#N)cc12)N[C@@H]1CCn2c(=O)[nH]c3cccc(c32)[C@H]1O (mixture of isomers) [Example 29, 3-(3-{[7-Hydroxy-2-oxo-1,2,4,5,6,7-hexahydroimidazo[4,5,1-jk][1]benzazepin-6-yl]amino}butyl)-1H-indole-5-carbonitrile]	0.083	0.127
CC(CCn1ccnc1)N[C@@H]1CCn2c(=O)[nH]c3cccc(c32)[C@H]1O (mixture of isomers) [Example 30, 7-Hydroxy-6-{[3-(1H-imidazol-1-yl)-1-methylpropyl]amino}-4,5,6,7-tetrahydroimidazo[4,5,1-jk][1]benzazepin-2(1H)-one]	0.048	0.0038
Cc1ccc2[nH]cc(CCC(C)N[C@@H]3CCn4c(=O)[nH]c5cccc(c54)[C@H]3O)c2c1 (mixture of isomers) [Example 33, 7-Hydroxy-6-{[1-methyl-3-(5-methyl-1H-indol-3-yl)propyl]amino}-4,5,6,7-tetrahydroimidazo[4,5,1-jk][1]benzazepin-2(1H)-one]	0.074	0.024
CC(CCc1cc(Cl)cc2cc[nH]c12)N[C@@H]1CCn2c(=O)[nH]c3cccc(c32)[C@H]1O (mixture of isomers) [Example 35, 6-{[3-(5-Chloro-1H-indol-7-yl)-1-methylpropyl]amino}-7-hydroxy-4,5,6,7-tetrahydroimidazo[4,5,1-jk][1]benzazepin-2(1H)-one]	0.0008	0.002
CC(CCc1ncccc1O)N[C@@H]1CCn2c(=O)[nH]c3cccc(c32)[C@H]1O (mixture of isomers) [Example 39, 7-Hydroxy-6-{[3-(3-hydroxypyridin-2-yl)-1-methylpropyl]amino}-4,5,6,7-tetrahydroimidazo[4,5,1-jk][1]benzazepin-2(1H)-one]	0.33	0.159
CCOC(=O)c1[nH]c2cc(Cl)ccc2c1CCN[C@@H]1CCn2c(=O)[nH]c3cccc(c32)[C@H]1O (racemic) [Example 41, Ethyl-6-chloro-3-(2-{[7-hydroxy-2-oxo-1,2,4,5,6,7-hexahydroimidazo[4,5,1-jk][1]benzazepin-6-yl]amino}ethyl)-1H-indole-2-carboxylate]	0.546	0.026
CC(/C=C/c1ccc2[nH]cnc2c1)N[C@@H]1CCn2c(=O)[nH]c3cccc(c32)[C@H]1O (mixture of isomers) [Example 42, 6-{[3-(1H-Benzimidazol-5-yl)-1-methylprop-2-en-1-yl]amino}-7-hydroxy-4,5,6,7-tetrahydroimidazo[4,5,1-jk][1]benzazepin-2(1H)-one]	0.023	0.022
CC(CCc1ccc2occc2c1)N[C@@H]1CCn2c(=O)[nH]c3cccc(c32)[C@H]1O (mixture of isomers) [Example 43, 6-{[3-(1-Benzofuran-5-yl)-1-methylpropyl]amino}-7-hydroxy-4,5,6,7-tetrahydroimidazo[4,5,1-jk][1]benzazepin-2(1H)-one]	0.016	0.011
CC(CCc1c[nH]c2ccccc12)NC1CCn2c(=O)[nH]c3cccc(c32)C1O (single isomer, unassigned) [Example 4a, 7-Hydroxy-6-{[3-(1H-indol-3-yl)-1-methylpropyl]amino}-4,5,6,7-tetrahydroimidazo[4,5,1-jk][1]benzazepin-2(1H)-one]	0.0032	0.0069
CC(CCc1c[nH]c2ccccc12)NC1CCn2c(=O)[nH]c3cccc(c32)C1O (single isomer, unassigned) [Example 4b, 7-Hydroxy-6-{[3-(1H-indol-3-yl)-1-methylpropyl]amino}-4,5,6,7-tetrahydroimidazo[4,5,1-jk][1]benzazepin-2(1H)-one]	0.0038	0.0069
CC(CCc1cncs1)N[C@@H]1CCn2c(=O)[nH]c3cccc(c32)[C@H]1O (single isomer, unassigned) [Example 6a, 7-Hydroxy-6-{[1-methyl-3-(1,3-thiazol-5-yl)propyl]amino}-4,5,6,7-tetrahydroimidazo[4,5,1-jk][1]benzazepin-2(1H)-one]	0.0229	> 10
CC(CCc1cncs1)N[C@@H]1CCn2c(=O)[nH]c3cccc(c32)[C@H]1O (single isomer, unassigned) [Example 6b, 7-Hydroxy-6-{[1-methyl-3-(1,3-thiazol-5-yl)propyl]amino}-4,5,6,7-tetrahydroimidazo[4,5,1-jk][1]benzazepin-2(1H)-one]	0.0036	> 10
Cc1nn(C)c(C)c1CCC(C)N[C@@H]1CCn2c(=O)[nH]c3cccc(c32)[C@H]1O (single isomer, unassigned) [Example 9a, 7-Hydroxy-6-{[1-methyl-3-(1,3,5-trimethyl-1H-pyrazol-4-yl)propyl]amino}-4,5,6,7-tetrahydroimidazo[4,5,1-jk][1]benzazepin-2(1H)-one]	0.402	0.268
Cc1nn(C)c(C)c1CCC(C)N[C@@H]1CCn2c(=O)[nH]c3cccc(c32)[C@H]1O (single isomer, unassigned) [Example 9b, 7-Hydroxy-6-{[1-methyl-3-(1,3,5-trimethyl-1H-pyrazol-4-yl)propyl]amino}-4,5,6,7-tetrahydroimidazo[4,5,1-jk][1]benzazepin-2(1H)-one]	0.0042	0.0028
CCOC(=O)c1[nH]c2ccccc2c1CC(C)NC1CCn2c(=O)[nH]c3cccc(c32)C1O (single isomer, unassigned) [Example 16, Ethyl 3-(2-{[7-hydroxy-2-oxo-1,2,4,5,6,7-hexahydroimidazo[4,5,1-jk][1]benzazepin-6-yl]amino}propyl)-1H-indole-2-carboxylate]	0.026	0.01
